Measurements published in US12448390B1, “Compound with α-glucosidase inhibitory activity and application thereof” (priority 2024, dated 2025).

Target: a-glucosidase (Saccharomyces cerevisiae, UniProt P53341)
Format: biochemical
Conditions: 0.5 U/ml enzyme, 0.6 mM pNaGP, pH 6.8, 37° C.; for Inhibition rate %: compound at 250 μmol/L; for IC50: gradient 500 to 7.8125 μmol/L
Experimental: An in vitro a-glucosidase activity assay was used for activity determination:
the compounds were weighed separately, and dissolved in dimethylsulfoxide (DMSO) to prepare 250 μmol/L of a reagent for a subsequent experiment. In short, a-glucosidase solution with a final concentration of 0.5 U/ml was reacted with 250 μmol/L of the compound and 0.6 mM of pNaGP solution in 0.1 mM, pH 6.8 phosphate buffer solution, to determine the inhibitory effect of the compound on an a-glucosidase conversion substrate. […] 250 μmol/L (10 μL) of the compound, enzyme solution (40 μL), and potassium phosphate buffer solution (100 μL) were pre-incubated in a 96-well plate at 37° C. for 10 min. Then, 50 μL of the substrate (pNaGP, 0.6 mM) was added to each micropore, it was incubated at 37° C. for 20 min, the absorbance was measured at 405 nm, and changes in enzyme activity were detected.
The formula for calculating the enzyme inhibitory activity of the compound tested was as follows:
The in vitro a-glucosidase activity assay was used for activity determination:
after the compounds were weighed separately, it was dissolved in DMSO to prepare 1 mmol/L of mother solution, and it was diluted in gradient to 500 μmol/L, 250 μmol/L, 125 μmol/L, 62.5 μmol/L, 31.25 μmol/L, 15.625 μmol/L and 7.8125 μmol/L. The different concentrations of the compounds (10 μL), 0.5 U/ml of enzyme solution (40 μL), and 0.1 mM, pH 6.8 phosphate buffer solution (100 μL) were pre-incubated in the 96-well plate at 37° C. for 10 min. Then, 50 μL of the substrate (pNaGP, 0.6 mM) was added to each micropore, it was incubated at 37° C. for 20 min, the absorbance was measured at 405 nm, and changes in enzyme activity were detected.

a-glucosidase, sequence (P53341 whole entry): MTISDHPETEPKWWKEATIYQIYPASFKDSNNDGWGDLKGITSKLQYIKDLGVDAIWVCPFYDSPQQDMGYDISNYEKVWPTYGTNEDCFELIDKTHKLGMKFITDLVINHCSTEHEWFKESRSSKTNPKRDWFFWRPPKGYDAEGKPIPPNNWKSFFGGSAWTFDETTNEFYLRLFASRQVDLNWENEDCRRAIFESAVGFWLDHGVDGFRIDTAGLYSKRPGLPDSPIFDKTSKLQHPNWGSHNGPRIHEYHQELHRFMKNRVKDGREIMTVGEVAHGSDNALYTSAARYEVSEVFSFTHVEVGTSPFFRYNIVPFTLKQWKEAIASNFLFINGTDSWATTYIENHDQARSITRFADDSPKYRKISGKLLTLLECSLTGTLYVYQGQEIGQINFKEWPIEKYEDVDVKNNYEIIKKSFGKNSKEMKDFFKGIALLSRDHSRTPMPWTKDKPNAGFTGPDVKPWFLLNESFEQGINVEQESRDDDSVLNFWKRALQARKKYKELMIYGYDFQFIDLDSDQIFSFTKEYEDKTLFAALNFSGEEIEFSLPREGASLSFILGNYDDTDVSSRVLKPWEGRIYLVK

Compound	Inhibition rate %	IC50
Cc1ncc(CO)c2cc(C(=O)Nc3ccc(F)cc3)c(=Nc3cccc(C(F)(F)F)c3)oc12 [GFY-1]	23.042%	–
Cc1ncc(CO)c2cc(C(=O)Nc3ccc(F)cc3)c(=Nc3ccc(C(F)(F)F)cc3)oc12 [GFY-2]	13.832%	–
COc1cccc(N=c2oc3c(C)ncc(CO)c3cc2C(=O)Nc2ccc(F)cc2)c1 [GFY-4]	30.769%	–
Cc1ncc(CO)c2cc(C(=O)Nc3ccc(F)cc3)c(=Nc3cc(O)cc(CO)c3)oc12 [GFY-7]	45.254%	–
Cc1ncc(CO)c2cc(C(=O)Nc3ccc(F)c(F)c3)c(=Nc3cc(O)cc(CO)c3)oc12 [GFY-13]	13.978%	–
Cc1ncc(CO)c2cc(C(=O)Nc3ccc(F)c(Cl)c3)c(=Nc3cccc(CO)c3)oc12 [GFY-16]	89.604%	140 µM
Cc1ncc(CO)c2cc(C(=O)Nc3ccc(F)c(Cl)c3)c(=Nc3cc(O)cc(CO)c3)oc12 [GFY-17]	31.045%	–
Cc1ncc(CO)c2cc(C(=O)Nc3ccc(F)cc3)c(=Nc3ccc(F)cc3)oc12 [GFY-20]	95.56%	20.1 µM
Cc1ncc(CO)c2cc(C(=O)Nc3ccc(F)cc3)c(=Nc3cc(F)cc(F)c3)oc12 [GFY-21]	99.916%	43.1 µM
Cc1ncc(CO)c2cc(C(=O)Nc3ccc(F)cc3)c(=Nc3ccc(F)c(F)c3)oc12 [GFY-22]	86.819%	37 µM
Cc1ncc(CO)c2cc(C(=O)Nc3ccc(F)c(Cl)c3)c(=Nc3ccc(F)cc3)oc12 [GFY-23]	22.127%	–
Cc1ncc(CO)c2cc(C(=O)Nc3ccc(F)c(Cl)c3)c(=Nc3cc(F)cc(F)c3)oc12 [GFY-24]	99.833%	16.6 µM
Cc1ncc(CO)c2cc(C(=O)Nc3ccc(F)c(Cl)c3)c(=Nc3ccc(F)c(F)c3)oc12 [GFY-25]	69.628%	–
Cc1ncc(CO)c2cc(C(=O)Nc3ccc(F)c(Cl)c3)c(=Nc3ccc(Cl)cc3)oc12 [GFY-26]	62.651%	–
Cc1ncc(CO)c2cc(C(=O)Nc3ccc(F)c(Cl)c3)c(=Nc3cc(Br)cc(Br)c3)oc12 [GFY-27]	56.656%	–
Cc1ncc(CO)c2cc(C(=O)Nc3ccc(F)c(Cl)c3)c(=Nc3ccc(Br)c(Br)c3)oc12 [GFY-28]	64.035%	–
Cc1ncc(CO)c2cc(C(=O)Nc3ccc(F)cc3)c(=Nc3cc(Br)cc(Br)c3)oc12 [GFY-29]	94.686%	27 µM
